Key:
MAO B = target: T1, MAO B (Rattus norvegicus, UniProt P19643); assay: MAO B inhibition in dilute rat brain homogenate; type: biochemical; conditions: 20 min; for IC50: dilute rat brain homogenate, 14C-phenylethylamine or 14C-tryptamine 0.4 μmol/l, 37° C.; for MAO A / MAO B IC50 ratio: selectivity for MAO B over MAO A, rat brain homogenate
T1 construct: from tissue; host or cells: rat brain homogenate
T1 sequence (P19643 1-520): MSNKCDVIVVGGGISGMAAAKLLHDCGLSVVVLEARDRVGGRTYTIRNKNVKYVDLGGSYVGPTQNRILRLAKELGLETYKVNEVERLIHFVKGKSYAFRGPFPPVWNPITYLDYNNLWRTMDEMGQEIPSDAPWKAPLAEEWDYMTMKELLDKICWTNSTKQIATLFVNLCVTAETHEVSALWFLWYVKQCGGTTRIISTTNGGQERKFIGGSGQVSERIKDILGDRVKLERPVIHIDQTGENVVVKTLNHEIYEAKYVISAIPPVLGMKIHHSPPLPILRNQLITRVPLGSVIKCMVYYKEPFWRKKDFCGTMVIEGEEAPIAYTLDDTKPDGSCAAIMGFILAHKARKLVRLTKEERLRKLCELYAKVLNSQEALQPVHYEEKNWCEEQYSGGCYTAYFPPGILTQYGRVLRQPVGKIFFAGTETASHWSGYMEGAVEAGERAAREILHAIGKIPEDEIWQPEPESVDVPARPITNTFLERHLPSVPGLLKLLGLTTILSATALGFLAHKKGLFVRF
Procedure: (§1) The MAO-inhibiting activity of the compounds according to the invention can be determined using standard methods. Thus, monoamine oxidases A and B were determined in dilute rat brain homogenate to which test substances in various concentrations and ^14 C-phenylethylamine or ^14 C-tryptamine in a concentration of 0.4 μmol/l were added. This mixture was incubated at 37° C. for 20 min.
(§2) The reaction was then stopped with 0.1 normal HCl, and the products were determined after extraction in a toluene scintillator (PPO+POPOP in toluene). The blank was determined on a similar mixture with an incubation time of 0 min.
(§3) The median inhibitory concentration (IC50) was calculated by linear regression after logit-log transformation from the values for the inhibition at the various concentrations relative to the control.

MAO A = target: T2, MAO A (Rattus norvegicus, UniProt P21396); assay: MAO A inhibition in dilute rat brain homogenate; type: biochemical; conditions: 14C-phenylethylamine or 14C-tryptamine 0.4 μmol/l, 37° C., 20 min
T2 construct: from tissue; host or cells: rat brain homogenate
T2 sequence (P21396 1-526): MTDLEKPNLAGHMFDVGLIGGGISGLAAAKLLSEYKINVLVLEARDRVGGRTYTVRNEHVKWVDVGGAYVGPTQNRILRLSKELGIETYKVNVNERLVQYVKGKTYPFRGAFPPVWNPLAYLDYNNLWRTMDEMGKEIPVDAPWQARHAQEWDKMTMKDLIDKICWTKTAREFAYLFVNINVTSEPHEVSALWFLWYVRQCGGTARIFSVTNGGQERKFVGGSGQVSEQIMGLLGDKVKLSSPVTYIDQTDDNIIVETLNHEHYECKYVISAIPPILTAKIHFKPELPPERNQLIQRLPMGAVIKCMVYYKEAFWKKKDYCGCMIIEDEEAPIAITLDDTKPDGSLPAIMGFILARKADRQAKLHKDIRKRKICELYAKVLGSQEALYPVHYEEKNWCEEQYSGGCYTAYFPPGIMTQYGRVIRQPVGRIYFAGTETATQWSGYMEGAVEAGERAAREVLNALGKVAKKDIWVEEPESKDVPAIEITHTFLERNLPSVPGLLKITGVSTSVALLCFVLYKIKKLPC
Procedure: as §1, §2, §3

| Compound | IC50 (MAO B) [nM] | MAO A / MAO B IC50 ratio (MAO B) | IC50 (MAO A) [nM] |
| --- | --- | --- | --- |
| Cc1c(C)c2ccc(OCc3nnc(C(C)C)s3)cc2oc1=S [Example 1, 3,4-Dimethyl-7-(2-isopropyl-1,3,4-thiadiazol-5-ylmethoxy)-2-thiocoumarin] | 1 | > 10,000 | > 10000 |
| Cc1c(C)c2ccc(OCc3csc(C(C)C)n3)cc2oc1=S [Example 2, 3,4-Dimethyl-7-(2-isopropylthiazol-4-ylmethoxy)-2-thiocoumarin] | 3 | > 3333 | > 10000 |
| Cc1nnc(COc2ccc3c(C)c(C)c(=S)oc3c2)o1 [Example 3, 3,4-Dimethyl-7-(2-methyl-1,3,4-oxadiazol-5-ylmethoxy)-2-thiocoumarin] | 10 | > 1000 | > 10000 |
| CCCc1nnc(COc2ccc3c(C)c(C)c(=S)oc3c2)s1 [Example 4, 3,4-Dimethyl-7-(2-n-propyl-1,3,4-thiadiazol-5-ylmethoxy)-2-thiocoumarin] | 2 | > 5000 | ≥ 10000 |
| CC(C)c1ccc(COc2ccc3ccc(=S)oc3c2)cc1 [Example 12, 7-(4-Isopropylbenzyloxy)-2-thiocoumarin] | 3 | > 3333 | ≥ 10000 |
| Cc1c(C)c2cc(Cl)c(OCc3nnc(C(C)C)s3)cc2oc1=S [Example 13, 6-Chloro-3,4-dimethyl-7-(2-isopropyl-1,3,4-thiadiazol-5-ylmethoxy)-2-thiocoumarin] | 3 | > 3333 | > 10000 |
| Cc1c(C)c2cc(Cl)c(OCc3nnc(C4CC4)s3)cc2oc1=S [Example 14, 6-Chloro-3,4-dimethyl-7-(2-cyclopropyl-1,3,4-thiadiazol-5-ylmethoxy)-2-thiocoumarin] | 6 | > 1667 | > 10000 |
